In BindingDB's records for doi:10.1021/jm990266k (Warner-Lambert, 1999):
pIC50: −log10 of the molar value.

Experiment: Compound was tested for the inhibition of [3H]-thymidine uptake in CHO p-5 cells transfected with human Dopamine receptor D4.2

SMILES	pIC50
Cc1ccc(N2CCN(Cc3ccc4ccc(=O)oc4c3)CC2)cc1Cl [7-[4-(3-Chloro-4-methyl-phenyl)-piperazin-1-ylmethyl]-chromen-2-one]	8.27
Cc1ccc(N2CCN(Cc3ccc4oc(=O)ccc4c3)CC2)cc1 [6-(4-p-Tolyl-piperazin-1-ylmethyl)-chromen-2-one]	< 6.00
